The record followed here is ChEMBL document CHEMBL5303573, “Mapping human microbiome drug metabolism by gut bacteria and their genes” (Nature, 2019).

Series [1] is described as follows: The drug is tested on Anaerotruncus colihominis strain: DSM17241 for biotransformation. The drug concentrations were measured before and after a 12-h incubation by liquid-chromatography-coupled mass spectrometry (LC–MS). Conditions: 2 µM.
Series [2] can be described thus: The drug is tested on Clostridium ramosum strain: DSM1402 for biotransformation. The drug concentrations were measured before and after a 12-h incubation by liquid-chromatography-coupled mass spectrometry (LC–MS). Conditions: thomasclavelia ramosa, 2 µM.
For series [3] the following is noted: bifidobacterium adolescentis, 12 h, 2 µM.
Description: The drug is tested on Bifidobacterium adolescentis strain: ATCC 15703 for biotransformation. The drug concentrations were measured before and after a 12-h incubation by liquid-chromatography-coupled mass spectrometry (LC–MS)
For series [4] the following is noted: victivallis vadensis, 12 h, 2 µM.
Description: The drug is tested on Victivallis vadensis strain: ATCC BAA-548 for biotransformation. The drug concentrations were measured before and after a 12-h incubation by liquid-chromatography-coupled mass spectrometry (LC–MS)
For series [5] the following is noted: bacteroides fragilis, 12 h, 2 µM.
Description: The drug is tested on Bacteroides fragilis strain: 3397 (T10) for biotransformation. The drug concentrations were measured before and after a 12-h incubation by liquid-chromatography-coupled mass spectrometry (LC–MS)
Series [6] can be described thus: The drug is tested on Eggerthella lenta strain: ATCC25559 for biotransformation. The drug concentrations were measured before and after a 12-h incubation by liquid-chromatography-coupled mass spectrometry (LC–MS). As to conditions: 2 µM.
For series [7] the following is noted: parabacteroides johnsonii, 12 h, 2 µM.
Description: The drug is tested on Parabacteroides johnsonii strain: DSM18315 for biotransformation. The drug concentrations were measured before and after a 12-h incubation by liquid-chromatography-coupled mass spectrometry (LC–MS)

`CCN(CC)CCNC(C(=O)OCCC(C)C)c1ccccc1.Cl.Cl` (centres undefined): the “Bacterial Biotransformation” value in series [1], in series [2], in series [3] and in series [4] was “Compound NOT metabolized” in each case.

With `CC(C)(C)N.CCC[C@H](N[C@@H](C)C(=O)N1[C@H](C(=O)O)C[C@@H]2CCCC[C@@H]21)C(=O)OCC` [PERINDOPRIL ERBUMINE], the “Bacterial Biotransformation” value in series [1], in series [2], in series [3], in series [4] and in series [5] was “Compound NOT metabolized” throughout.

On to `CS(=O)(=O)O.O.O.O.O=C1Cc2cc(CCN3CCN(c4nsc5ccccc45)CC3)c(Cl)cc2N1` [ZIPRASIDONE MESYLATE], for which the “Bacterial Biotransformation” value in series [2], in series [4], in series [5], in series [6] and in series [7] was “Compound NOT metabolized” throughout.

As to `CC1=C(CC(=O)O)c2cc(F)ccc2/C1=C\c1ccc([S+](C)[O-])cc1` (centres undefined), the “Bacterial Biotransformation” value in series [1], in series [2], in series [3], in series [4], in series [5] and in series [6] was “Compound NOT metabolized” throughout. Besides, in series [7], the “Bacterial Biotransformation” value is recorded as “Compound NOT metabolized”.

As to `CNNCc1ccc(C(=O)NC(C)C)cc1` [PROCARBAZINE], the “Bacterial Biotransformation” value was “Compound NOT metabolized” in series [1]; “Compound NOT metabolized” in series [2]; “Compound NOT metabolized” in series [3]; “Compound NOT metabolized” in series [4]; “Compound NOT metabolized” in series [5]; “Compound metabolized” in series [7].

Take `Cc1ccc(-c2nc3ccc(C)cn3c2CC(=O)N(C)C)cc1` [ZOLPIDEM]: the “Bacterial Biotransformation” value in series [1], in series [2], in series [3], in series [4], in series [5] and in series [6] was “Compound NOT metabolized” in each case.

Regarding `N=C(N)NC(=O)Cc1c(Cl)cccc1Cl` [GUANFACINE], the “Bacterial Biotransformation” value in series [1], in series [2], in series [3], in series [4], in series [5] and in series [7] was “Compound NOT metabolized” in each case.

As to `CCN(CC)CCCC(C)Nc1c2ccc(Cl)cc2nc2ccc(OC)cc12` (centres undefined) [QUINACRINE], the “Bacterial Biotransformation” value in series [1], in series [2], in series [3], in series [4], in series [5] and in series [6] was “Compound NOT metabolized” in each case.

On to `CN(C)CCc1c[nH]c2ccc(Cn3cncn3)cc12.O=C(O)c1ccccc1` [RIZATRIPTAN BENZOATE], for which the “Bacterial Biotransformation” value in series [1], in series [2], in series [4] and in series [6] was “Compound NOT metabolized” throughout.

With `CS(=O)(=O)O.OC(CCN1CCCCC1)(c1ccccc1)c1ccccc1` [PRIDINOL METHANESULFONATE], the “Bacterial Biotransformation” value in series [1], in series [2], in series [3], in series [4], in series [5] and in series [6] was “Compound NOT metabolized” each time.

On to `CCCN(CCC)CCc1cccc2c1CC(=O)N2` [ROPINIROLE], for which the “Bacterial Biotransformation” value in series [1], in series [2], in series [3], in series [4], in series [6] and in series [7] was “Compound NOT metabolized” each time.

On to `CCCCCNC(=N)N/N=C/c1c[nH]c2ccc(OC)cc12.O=C(O)/C=C\C(=O)O` [TEGASEROD MALEATE], for which the “Bacterial Biotransformation” value in series [1], in series [2], in series [3], in series [4], in series [5] and in series [7] was “Compound NOT metabolized” in each case.

Take `CNS(=O)(=O)Cc1ccc2[nH]cc(CCN(C)C)c2c1.O=C(O)CCC(=O)O` [SUMATRIPTAN SUCCINATE]: the “Bacterial Biotransformation” value in series [1], in series [2], in series [3], in series [4] and in series [7] was “Compound NOT metabolized” throughout.

For the molecule `C[C@]12C=CC(=O)C=C1CC[C@@H]1[C@@H]2C(=O)C[C@@]2(C)[C@H]1CC[C@]2(O)C(=O)CO` [PREDNISONE], the “Bacterial Biotransformation” value in series [1], in series [2], in series [3], in series [4], in series [5] and in series [7] was “Compound NOT metabolized” in each case.

Turning to `CC(C)c1nc(N(C)S(C)(=O)=O)nc(-c2ccc(F)cc2)c1/C=C/[C@@H](O)C[C@@H](O)CC(=O)[O-].CC(C)c1nc(N(C)S(C)(=O)=O)nc(-c2ccc(F)cc2)c1/C=C/[C@@H](O)C[C@@H](O)CC(=O)[O-].[Ca+2]` [ROSUVASTATIN CALCIUM], the “Bacterial Biotransformation” value in series [1], in series [2], in series [3], in series [4] and in series [5] was “Compound NOT metabolized” each time.

As for `CC(=O)OCC(=O)[C@@]1(O)[C@@H](C)C[C@H]2[C@@H]3CCC4=CC(=O)C=C[C@]4(C)[C@@]3(F)[C@@H](O)C[C@@]21C` [BETAMETHASONE ACETATE], the “Bacterial Biotransformation” value in series [1] is given as “Compound NOT metabolized”; in series [2], “Compound NOT metabolized”; in series [3], “Compound NOT metabolized”; in series [5], “Compound metabolized”; in series [6], “Compound NOT metabolized”; in series [7] it was “Compound metabolized”.

`CCCCc1nc(Cl)c(CO)n1Cc1ccc(-c2ccccc2-c2nn[nH]n2)cc1` [LOSARTAN]: the “Bacterial Biotransformation” value in series [1] is listed as “Compound NOT metabolized”; in series [2] it was “Compound NOT metabolized”; in series [3] it was “Compound NOT metabolized”; in series [4] it was “Compound NOT metabolized”; in series [6], “Compound NOT metabolized”; in series [7], “Compound metabolized”.

With `C[C@@H](c1ncncc1F)[C@](O)(Cn1cncn1)c1ccc(F)cc1F` [VORICONAZOLE], the “Bacterial Biotransformation” value in series [1] is given as “Compound NOT metabolized”; in series [2], “Compound NOT metabolized”; in series [3], “Compound NOT metabolized”; in series [5], “Compound metabolized”; in series [6], “Compound NOT metabolized”; in series [7], “Compound NOT metabolized”.

For the molecule `CC(C)c1nc(CN(C)C(=O)N[C@H](C(=O)N[C@@H](Cc2ccccc2)C[C@H](O)[C@H](Cc2ccccc2)NC(=O)OCc2cncs2)C(C)C)cs1` [RITONAVIR], the “Bacterial Biotransformation” value in series [1], in series [2], in series [4], in series [5], in series [6] and in series [7] was “Compound NOT metabolized” in each case.

For the molecule `CCCCCCOC(=O)/N=C(/N)c1ccc(NCc2nc3cc(C(=O)N(CCC(=O)OCC)c4ccccn4)ccc3n2C)cc1.CS(=O)(=O)O` [DABIGATRAN ETEXILATE MESYLATE], the “Bacterial Biotransformation” value in series [1], in series [2], in series [3], in series [4], in series [5] and in series [6] was “Compound NOT metabolized” throughout.

On to `C#C[C@]1(OC(C)=O)CC[C@H]2[C@@H]3CCC4=C[C@@H](OC(C)=O)CC[C@@H]4[C@H]3CC[C@@]21C` [ETHYNODIOL DIACETATE], for which the “Bacterial Biotransformation” value in series [1], in series [2], in series [3], in series [4], in series [5] and in series [6] was “Compound NOT metabolized” throughout.
